Key:
[1] = target: human recombinant BChE (rBChE) in solution (Homo sapiens, UniProt P06276); test: in solution stopped time assay for carbamoylation constants; format: biochemical; details: enzyme in solution, classical Ellman's assay
[2] = target: immobilized human recombinant butyrylcholinesterase (rBChE) (Homo sapiens, UniProt P06276); test: rBChE-IMER on-line carbamoylation/decarbamoylation kinetics; format: biochemical; details: immobilized enzyme, 30 °C, flow rate 1.0 mL/min
Chain of immobilized human recombinant butyrylcholinesterase (rBChE) (P06276 29-602): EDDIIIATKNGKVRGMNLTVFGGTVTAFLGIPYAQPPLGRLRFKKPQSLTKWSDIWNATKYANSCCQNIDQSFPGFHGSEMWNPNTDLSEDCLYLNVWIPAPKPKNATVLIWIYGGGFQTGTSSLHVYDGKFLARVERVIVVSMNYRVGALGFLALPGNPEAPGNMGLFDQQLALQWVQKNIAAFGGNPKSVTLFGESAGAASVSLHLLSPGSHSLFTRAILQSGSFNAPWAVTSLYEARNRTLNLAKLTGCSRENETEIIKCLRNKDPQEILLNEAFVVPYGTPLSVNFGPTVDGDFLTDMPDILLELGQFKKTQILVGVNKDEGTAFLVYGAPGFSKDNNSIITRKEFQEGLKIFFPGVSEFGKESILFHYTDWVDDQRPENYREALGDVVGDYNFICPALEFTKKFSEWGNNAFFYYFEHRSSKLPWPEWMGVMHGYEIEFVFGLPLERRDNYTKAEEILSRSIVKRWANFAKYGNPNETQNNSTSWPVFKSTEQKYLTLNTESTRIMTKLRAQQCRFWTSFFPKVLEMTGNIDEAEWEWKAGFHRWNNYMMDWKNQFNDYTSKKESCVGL

Chain of human recombinant BChE (rBChE) in solution (P06276 29-602): as above

| Compound | carbamoylation constant k2, rBChE in solution [1] | carbamoylation constant k2, rBChE-IMER [2] |
| --- | --- | --- |
| CC(C)c1ccc(NC(=O)Oc2ccc3c(c2)[C@]2(C)CCN[C@@H]2N3)cc1 [(-)-Bisnorcymserine] | 0.573 ± 0.068 min⁻¹ | 0.081 ± 0.004 min⁻¹ |
| CC(C)Cc1ccc(NC(=O)Oc2ccc3c(c2)[C@]2(C)CCN[C@@H]2N3)cc1 [(-)-Isobutylbisnorcymserine] | 0.634 ± 0.022 min⁻¹ | 0.049 ± 0.002 min⁻¹ |
| CN1CC[C@@]2(C)c3cc(OC(=O)Nc4ccccc4)ccc3N(C)[C@@H]12 [(-)-Phenserine, 3aS-(-)-phenylcarbamoyleseroline] | 3.094 ± 0.536 min⁻¹ | 0.486 ± 0.037 min⁻¹ |
| CNC(=O)Oc1ccc2c(c1)[C@]1(C)CCN(C)[C@@H]1N2C [(-)-Physostigmine, (-)-physostigmine, reference compound] | 0.479 ± 0.070 min⁻¹ | 0.161 ± 0.025 min⁻¹ |
